Data from ChEMBL document CHEMBL1201862, “PubChem BioAssay data set” (2004).
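Following 48 hours of exposure in 96-well plates, responses at five concentrations were used to interpolate endpoints linearly. The concentration for 50% growth inhibition is given as GI50.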 Activity calls are given as the source filed them. No stated cut-off is given here; in the data, active = GI50 up to about 1.1 µM and inactive = higher.

Key:
Assay in all cases: NCI tumour cell line growth inhibition, 48 h
[1] = system: SW-620
[2] = system: OVCAR-4
[3] = system: UACC-257
[4] = system: 786-0
[5] = system: SK-MEL-5
[6] = system: MDA-MB-231
[7] = system: SF-295
[8] = system: COLO 205
[9] = system: IGROV-1
[10] = system: A549
[11] = system: M14
[12] = system: Malme-3M
[13] = system: ACHN
[14] = system: CAKI-1
[15] = system: U-251
[16] = system: HCT-15
[17] = system: HOP-92
[18] = system: OVCAR-3
[19] = system: SN12C
[20] = system: SK-MEL-2
[21] = system: NCI/ADR-RES
[22] = system: EKVX
[23] = system: LOX IMVI
[24] = system: A498
[25] = system: OVCAR-5
[26] = system: NCI-H522
[27] = system: OVCAR-8
[28] = system: SK-MEL-28
[29] = system: CCRF-CEM
[30] = system: NCI-H460
[31] = system: HOP-62
[32] = system: SR
[33] = system: NCI-H226
[34] = system: TK-10
[35] = system: T47D
[36] = system: SNB-75
[37] = system: HT-29
[38] = system: DU-145
[39] = system: MCF7
[40] = system: SK-OV-3
[41] = system: BT-549
[42] = system: MDA-N
[43] = system: UO-31
[44] = system: RPMI-8226
[45] = system: NCI-H23
[46] = system: SNB-19
[47] = system: MDA-MB-435
[48] = system: Hs-578T
[49] = system: HL-60
[50] = system: UACC-62
[51] = system: K562
[52] = system: SF-268
[53] = system: RXF 393
[54] = system: PC-3
[55] = system: KM12
[56] = system: HCC 2998
[57] = system: HCT-116

Measured: GI50

Nc1cccc2cc(S(=O)(=O)Nc3ccc(C(=O)O)cc3)ccc12
> 100 µM: [16]
inactive: [1] > 100 µM | [2] > 100 µM | [3] > 100 µM | [4] > 100 µM | [5] > 100 µM | [6] > 100 µM | [7] > 100 µM | [8] > 100 µM | [9] > 100 µM | [10] > 100 µM | [11] > 100 µM | [12] > 100 µM | [13] > 100 µM | [14] > 100 µM | [15] > 100 µM | [17] > 100 µM | [18] > 100 µM | [19] > 100 µM | [20] > 100 µM | [21] > 100 µM | [22] > 100 µM | [23] > 100 µM | [24] > 100 µM | [25] > 100 µM | [26] > 100 µM | [27] > 100 µM | [28] > 100 µM | [29] > 100 µM | [30] > 100 µM | [31] > 100 µM | [32] > 100 µM | [33] > 100 µM | [34] > 100 µM | [35] > 100 µM | [36] 98.2 µM | [37] > 100 µM | [38] > 100 µM | [39] > 100 µM | [40] > 100 µM | [41] > 100 µM | [42] > 100 µM | [43] > 100 µM | [44] > 100 µM | [45] > 100 µM | [46] > 100 µM | [47] > 100 µM | [48] > 100 µM | [49] > 100 µM | [50] > 100 µM | [51] > 100 µM | [52] > 100 µM | [53] > 100 µM | [54] > 100 µM | [55] > 100 µM | [56] > 100 µM | [57] > 100 µM
